What was measured:
Assay in all cases: relative viability (nuclei count vs DMSO), 5 days (fraction); higher = more cells survive
[1] = system: NCI-H2126
Procedure, shortened: (§1)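 Each reported value is a median over duplicate plates. It expresses relative viability: treated-well nuclei count divided by vehicle-well nuclei count. Lung cancer cell lines in 1536-well plates were dosed by pin tool a day after seeding, alone with one drug or with a fixed anchor-drug dose plus five library-drug doses (not always all listed) in √10 steps, and nuclei were counted after 5 days.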

[2] = system: NCI-H441
Procedure, shortened: as §1

[3] = system: NCI-H2347
Procedure, shortened: as §1

[4] = system: NCI-H596
Procedure, shortened: as §1

[5] = system: NCI-H838
Procedure, shortened: as §1

[6] = system: NCI-H1993
Procedure, shortened: as §1

[7] = system: NCI-H3122
Procedure, shortened: as §1

[8] = system: NCI-H650
Procedure, shortened: as §1

[9] = system: EMC-BAC-2
Procedure, shortened: as §1

[10] = system: 201T
Procedure, shortened: as §1

[11] = system: BEN
Procedure, shortened: as §1

[12] = system: NCI-H647
Procedure, shortened: as §1

[13] = system: LOU-NH91
Procedure, shortened: as §1

[14] = system: HCC-44
Procedure, shortened: as §1

[15] = system: NCI-H2087
Procedure, shortened: as §1

[16] = system: NCI-H727
Procedure, shortened: as §1

[17] = system: HARA
Procedure, shortened: as §1

[18] = system: NCI-H23
Procedure, shortened: as §1

[19] = system: LCLC-103H
Procedure, shortened: as §1

[20] = system: NCI-H522
Procedure, shortened: as §1

[21] = system: NCI-H2023
Procedure, shortened: as §1

[22] = system: NCI-H1395
Procedure, shortened: as §1

COc1nc(C)cnc1NS(=O)(=O)c1cccnc1-c1ccc(-c2nnco2)cc1 [Zibotentan] + O=C(CCCCCCC(=O)Nc1ccccc1)NO [Vorinostat] (partner 1 µM) showed a relative viability ([1]; first compound 0.08 µM) of 0.844, a relative viability ([1]; first compound 0.253 µM) of 0.765 and a relative viability ([1]; first compound 0.8 µM) of 0.651. It also gave a relative viability ([1]; first compound 2.53 µM) of 0.831, a relative viability ([2]; first compound 0.08 µM) of 0.78 and a relative viability ([2]; first compound 0.253 µM) of 0.721. It also gave a relative viability ([2]; first compound 0.8 µM) of 0.783, a relative viability ([2]; first compound 2.53 µM) of 0.794 and a relative viability ([3]; first compound 0.08 µM) of 0.622. For the same molecule, the relative viability ([3]; first compound 0.253 µM) was 0.566, the relative viability ([3]; first compound 0.8 µM) was 0.658 and the relative viability ([3]; first compound 2.53 µM) was 0.744. The relative viability ([4]; first compound 0.08 µM) was 0.568, the relative viability ([4]; first compound 0.253 µM) was 0.533 and the relative viability ([4]; first compound 0.8 µM) was 0.591. For the same molecule, the relative viability ([4]; first compound 2.53 µM) was 0.713, the relative viability ([5]; first compound 0.08 µM) was 0.762 and the relative viability ([5]; first compound 0.253 µM) was 0.716. It also gave a relative viability ([5]; first compound 0.8 µM) of 0.757, a relative viability ([5]; first compound 2.53 µM) of 0.771 and a relative viability ([6]; first compound 0.08 µM) of 1.05. It also gave a relative viability ([6]; first compound 0.253 µM) of 0.764, a relative viability ([6]; first compound 0.8 µM) of 0.826 and a relative viability ([6]; first compound 2.53 µM) of 0.988. For the same molecule, the relative viability ([7]; first compound 0.08 µM) was 1.05, the relative viability ([7]; first compound 0.253 µM) was 1.03 and the relative viability ([7]; first compound 0.8 µM) was 1.02. For the same molecule, the relative viability ([7]; first compound 2.53 µM) was 1.02, the relative viability ([8]; first compound 0.08 µM) was 0.53 and the relative viability ([8]; first compound 0.253 µM) was 0.403. The relative viability ([8]; first compound 0.8 µM) was 0.625, the relative viability ([8]; first compound 2.53 µM) was 0.536 and the relative viability ([9]; first compound 0.08 µM) was 0.907. For the same molecule, the relative viability ([9]; first compound 0.8 µM) was 0.546, the relative viability ([9]; first compound 2.53 µM) was 0.514 and the relative viability ([10]; first compound 0.08 µM) was 0.96. It also gave a relative viability ([10]; first compound 0.253 µM) of 0.972, a relative viability ([10]; first compound 0.8 µM) of 0.952 and a relative viability ([10]; first compound 2.53 µM) of 1. For the same molecule, the relative viability ([11]; first compound 0.08 µM) was 0.571, the relative viability ([11]; first compound 0.253 µM) was 0.556 and the relative viability ([11]; first compound 0.8 µM) was 0.568. It also gave a relative viability ([11]; first compound 2.53 µM) of 0.517, a relative viability ([12]; first compound 0.08 µM) of 0.649 and a relative viability ([12]; first compound 0.253 µM) of 0.381. The relative viability ([12]; first compound 0.8 µM) was 0.718, the relative viability ([12]; first compound 2.53 µM) was 0.698 and the relative viability ([13]; first compound 0.08 µM) was 0.941. It also gave a relative viability ([13]; first compound 0.253 µM) of 0.78, a relative viability ([13]; first compound 0.8 µM) of 0.953 and a relative viability ([13]; first compound 2.53 µM) of 0.947. The relative viability ([14]; first compound 0.08 µM) was 1.12, the relative viability ([14]; first compound 0.253 µM) was 1.08 and the relative viability ([14]; first compound 0.8 µM) was 1.02. For the same molecule, the relative viability ([14]; first compound 2.53 µM) was 1.08, the relative viability ([15]; first compound 0.08 µM) was 0.719 and the relative viability ([15]; first compound 0.253 µM) was 0.679. For the same molecule, the relative viability ([15]; first compound 0.8 µM) was 0.752, the relative viability ([15]; first compound 2.53 µM) was 0.732 and the relative viability ([16]; first compound 0.08 µM) was 1.19. The relative viability ([16]; first compound 0.253 µM) was 1.24, the relative viability ([16]; first compound 0.8 µM) was 1.07 and the relative viability ([16]; first compound 2.53 µM) was 1.19. It also gave a relative viability ([17]; first compound 0.08 µM) of 0.638, a relative viability ([17]; first compound 0.253 µM) of 0.633 and a relative viability ([17]; first compound 0.8 µM) of 0.569. The relative viability ([17]; first compound 2.53 µM) was 0.568, the relative viability ([18]; first compound 0.08 µM) was 0.642 and the relative viability ([18]; first compound 0.253 µM) was 0.497. It also gave a relative viability ([18]; first compound 0.8 µM) of 0.452, a relative viability ([18]; first compound 2.53 µM) of 0.707 and a relative viability ([19]; first compound 0.08 µM) of 0.801. It also gave a relative viability ([19]; first compound 0.253 µM) of 0.842, a relative viability ([19]; first compound 0.8 µM) of 0.722 and a relative viability ([19]; first compound 2.53 µM) of 0.839. The relative viability ([20]; first compound 0.08 µM) was 0.928, the relative viability ([20]; first compound 0.253 µM) was 0.887 and the relative viability ([20]; first compound 0.8 µM) was 1.03. For the same molecule, the relative viability ([20]; first compound 2.53 µM) was 0.946, the relative viability ([21]; first compound 0.08 µM) was 0.849 and the relative viability ([21]; first compound 0.8 µM) was 0.562. For the same molecule, the relative viability ([21]; first compound 2.53 µM) was 0.846, the relative viability ([22]; first compound 0.08 µM) was 0.809 and the relative viability ([22]; first compound 0.253 µM) was 0.502. The relative viability ([22]; first compound 0.8 µM) was 0.698 and the relative viability ([22]; first compound 2.53 µM) was 0.951.

— the supplement of paper PMC10307832
